Values quoted from earlier work as cited in patent US20060264384A1, “Compositions and methods for treatment for neoplasms” (priority 2005, published 2006).

Row | solubility in water | Compound | solubility in organic solvents
1 | barely soluble in water | CCN(CC)C(=S)SSC(=S)N(CC)CC [Disulfiram] | soluble in solvents such as alcohol, ether, acetone, and benzene
2 | slightly soluble | CCc1c2c(nc3ccc(OC(=O)N4CCC(N5CCCCC5)CC4)cc13)-c1cc3c(c(=O)n1C2)COC(=O)[C@]3(O)CC [Irinotecan] | slightly soluble
3 | up to 1 mg/ml | CC[C@@]1(O)C(=O)OCc2c1cc1n(c2=O)Cc2cc3c(CN(C)C)c(O)ccc3nc2-1 [Topotecan] | 
